Results taken from patent US20050089558A1 (Alamo Pharmaceuticals, LLC, priority 2003, published 2005).
Where two headings read alike, the source gives them in different places.

Columns and labels:
[1] = cited from earlier work; for half-life: after a single oral dose of 100 mg tramadol, 2-compartmental elimination; for accumulation: during multiple dose treatment with tramadol
[2] = system: abdominal muscle contractions (writhing) induced by 0.6% acetic acid; assay: acetic acid writhing test of analgesia in mice; type: in vivo, Crl:CFW (SW) BR mice; details: 0.6% acetic acid i.p. 30 min later, male mice; for Ave. # of writhes: 15-minute count
Method: In the animal studies presented in Examples 5-7, tramadol and dextro-propoxyphene were administered neat (undiluted), or were diluted with diluted with saline (i.e. 0.9% Sodium Chloride for injection) in order to achieve the desired dose volumes. Fresh solutions were prepared for each concentration (of each compound) prior to administration.
Acetic acid was used to assess experimental pain or “writhing.” Specifically, thirty minutes after dosing, the writhing-induction agent (0.6% Acetic Acid) was administered to all experimental groups by intraperitoneal injection at a dose volume of 10 mL/kg.
Crl:CFW® (SW) BR mice, from Charles River Laboratories were used as the animal model to test the analgesia of the tramadol/propoxyphene co-formulations. The test animals were approximately 4 weeks of age on arrival and each animals weighed approximately 22 to 28 g within 3 days of arrival. […] Animals considered suitable for study were weighed prior to treatment and randomized, by sex, into treatment groups using a standard, by weight, block randomization procedure.
The protocols employed assessed the qualitative and quantitative changes in abdominal muscle contractions (writhing) induced after the […] administration of a noxious chemical stimulus, 0.6% acetic acid, in mice. The degree and amount of contractile abdominal activity is a measure of “experimentally-induced pain”. A decrease in the amount of writhing with prior administration of a test article is an experimental measure of “analgesia.”
Dose-response functions were generated for each of the two (2) test articles (tramadol, dextro-propoxyphene,). ED50 values for analgesic activity were estimated using a least squares linear regression analysis procedure using PHARM/PCS or SAS.
The test article, positive control, and vehicle were administered to all groups as a single subcutaneous injection in the scapular region on the back at a dose volume of 10 mL/kg and at the dose levels as presented in Table 1 below.
Thirty minutes after dosing, the writhing-induction article, 0.6% acetic acid, was administered to all groups by intraperitoneal injection at a dose volume of 10 mL/kg.
Immediately after administration of the writhing-induction article, animals were placed into a poly-observation chamber and a 15-minute evaluation period was initiated. During the 15-minute evaluation period, the number of “writhes” that occurred were recorded. For scoring purposes, a “writhe” was indicated by whole body stretching or contraction of the abdomen, further described as waves of contraction of the abdominal musculature, twisting and turning of the trunk, and hind-limb extension.

opioid receptors = details: in words; cited from earlier work
mu receptors of the CNS = mu receptors of the CNS (Homo sapiens, UniProt P35372); details: relative to morphine; cited from earlier work
Sequence of mu receptors of the CNS (P35372 whole entry): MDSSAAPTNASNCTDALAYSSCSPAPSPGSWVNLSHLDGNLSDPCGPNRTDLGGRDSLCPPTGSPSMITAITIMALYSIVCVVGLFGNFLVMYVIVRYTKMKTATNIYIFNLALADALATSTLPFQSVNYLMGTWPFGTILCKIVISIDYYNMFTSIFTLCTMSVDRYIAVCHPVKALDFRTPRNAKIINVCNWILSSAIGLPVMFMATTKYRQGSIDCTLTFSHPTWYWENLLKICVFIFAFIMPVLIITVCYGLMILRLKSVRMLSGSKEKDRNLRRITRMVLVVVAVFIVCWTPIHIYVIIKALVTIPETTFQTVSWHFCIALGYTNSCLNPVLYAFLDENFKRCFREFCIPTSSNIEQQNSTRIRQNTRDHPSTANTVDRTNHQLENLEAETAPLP

[3] = in vivo; cited from earlier work
NMDA receptor = details: in words, a recent study; cited from earlier work
[4] = in words; cited from earlier work

| Structure (SMILES) | half-life [1] [h] | accumulation [1] | Ave. # of writhes ([2]; 1.0 mg/kg single s.c. dose) | % Analgesia ([2]; 1.0 mg/kg single s.c. dose) [%] | Ave. # of writhes ([2]; 3.2 mg/kg single s.c. dose) | % Analgesia ([2]; 3.2 mg/kg single s.c. dose) [%] | affinity for opioid receptors (opioid receptors) | other results |
| --- | --- | --- | --- | --- | --- | --- | --- | --- |
| COc1cccc([C@]2(O)CCCC[C@H]2CN(C)C)c1 (racemic) [Tramadol, cyclohexanol, 2-((dimethylamino)methyl)-1-(3-methoxyphenyl)-, cis-(+−)-] | 5.1 | approximately 2 fold | 55.1 | −4.16 | 31.7 | 40.08 | low affinity | duration of the analgesic effect ([1]; after a single oral dose of tramadol 100 mg): about 6 hours; bioavailability ([1]; after oral administration): 68%; time to peak serum concentrations ([1]; after oral administration): ≤ 2 h; time to peak plasma levels ([1]; following oral administration): ≤ 2 h; Ave. # of writhes ([2]; 0.32 mg/kg single s.c. dose): 54.6; % Analgesia ([2]; 0.32 mg/kg single s.c. dose): −3.21%; affinity for mu receptors of the CNS, times lower than that of morphine (mu receptors of the CNS): 6000 times |
| CN(C)CC1CCCCC1(O)c1cccc(O)c1 (centres unmarked) [M1 derivative, O-demethyl tramadol] | 9 | approximately 2 fold | – | – | – | – | higher affinity for opioid receptors than the parent drug | – |
| CCC(=O)OC(Cc1ccccc1)(c1ccccc1)C(C)CN(C)C (stereo not drawn) [Propoxyphene, 2-Butanol, 4-(dimethylamino)-3-methyl-1,2-diphenyl-, propionate, (+)-] | – | – | 59.4 | −12.29 | 45.4 | 14.18 | – | Ave. # of writhes ([2]; 10.0 mg/kg single s.c. dose): 26.7; % Analgesia ([2]; 10.0 mg/kg single s.c. dose): 49.53%; half-life [3]: 6 to 12 h; activity at the NMDA receptor (NMDA receptor): antagonist activity |
| CCC(=O)O[C@](Cc1ccccc1)(c1ccccc1)[C@H](C)CNC [norpropoxyphene] | – | – | – | – | – | – | – | analgesic properties [4]: very weak analgesic properties |
